Test results: patent publication US20240174727A1, “LONG-ACTING NATRIURETIC PEPTIDES AND USES THEREOF” (Eli Lilly and Company, priority 2022, published 2024)
Read-outs that look alike come from different tables or passages of the source. Numbered stars: 1 amine (or outer) side, 2 acyl side, 3 side chain; on linkers, the order of the positions; unused ones are H or OH. Bridge positions count the residues as written; N and C are the ends. Square brackets hold non-standard residues; d marks the D form. * marks the point of attachment. C20 diacid = O=C(O)CCCCCCCCCCCCCCCCCCC(=O)*; γGlu = O=C(O)[C@H](CCC(=O)[*:2])N[*:1]; 4Pal = N[C@@H](Cc1ccncc1)C(=O)O; AEEA = NCCOCCOCC(=O)O; CH2 = C([*:1])[*:2]

Target: T1, rat NPRA (Rattus norvegicus, UniProt P18910)
T1 construct: Full-Length cDNA Cloning and Generation of Cell Lines Overexpressing Natriuretic Peptide Receptors (NPRs); expressed in transfected cells; host or cells: Jump-in T-Rex HEK293 cells, pJTI R4 CMV-TO MCS pA vector, tetracycline induction
T1 sequence (P18910 29-1057): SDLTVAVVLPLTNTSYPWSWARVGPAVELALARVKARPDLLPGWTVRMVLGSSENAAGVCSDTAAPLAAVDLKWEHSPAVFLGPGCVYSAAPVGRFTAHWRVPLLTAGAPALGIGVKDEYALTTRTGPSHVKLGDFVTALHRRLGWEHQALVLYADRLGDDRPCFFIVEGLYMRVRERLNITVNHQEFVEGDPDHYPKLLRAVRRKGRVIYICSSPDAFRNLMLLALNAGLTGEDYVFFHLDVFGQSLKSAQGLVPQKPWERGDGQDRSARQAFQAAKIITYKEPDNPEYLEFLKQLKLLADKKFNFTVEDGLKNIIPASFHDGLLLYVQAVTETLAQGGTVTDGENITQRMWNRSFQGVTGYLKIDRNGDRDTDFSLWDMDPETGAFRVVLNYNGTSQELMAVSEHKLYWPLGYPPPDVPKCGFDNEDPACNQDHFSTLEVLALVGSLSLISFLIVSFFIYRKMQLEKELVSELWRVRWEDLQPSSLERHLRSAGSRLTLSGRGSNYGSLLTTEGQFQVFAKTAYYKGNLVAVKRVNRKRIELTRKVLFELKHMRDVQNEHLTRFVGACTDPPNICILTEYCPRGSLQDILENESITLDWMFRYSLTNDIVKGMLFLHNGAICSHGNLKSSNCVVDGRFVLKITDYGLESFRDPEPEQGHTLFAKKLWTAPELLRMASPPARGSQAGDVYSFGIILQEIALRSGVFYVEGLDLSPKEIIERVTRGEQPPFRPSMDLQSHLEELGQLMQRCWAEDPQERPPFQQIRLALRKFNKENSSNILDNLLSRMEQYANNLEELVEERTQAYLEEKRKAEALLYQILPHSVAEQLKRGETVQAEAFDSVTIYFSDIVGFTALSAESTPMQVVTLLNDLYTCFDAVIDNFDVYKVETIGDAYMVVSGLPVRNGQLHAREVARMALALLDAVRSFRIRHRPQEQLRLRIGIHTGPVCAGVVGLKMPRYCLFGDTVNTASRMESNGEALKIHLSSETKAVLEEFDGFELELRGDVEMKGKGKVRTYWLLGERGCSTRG
Experiment: Rat NPRA cGMP activity assay (HTRF) in HEK293 cells overexpressing NPRA
Format: cell-based
Procedure: All sequences were verified by full-length sequencing performed by ACGT DNA Sequencing Services (Wheeling, IL). The target cDNA was cloned into pJTI R4 CMV-TO MCS pA vector and then co-transfected with pJT1R4 Int vector into Jump-in™ T-Rex™ HEK293 cells for mammalian inducible expression using Jump-in™ T-Rex™ HEK293 kit and Lipofectamine LTX and Plus Reagent following manufacturer's protocols, as briefly described below.
Jump-in™ T-Rex™ HEK293 cells were plated in a BioCOAT® poly-D-lysine coated 6-well plate (Becton Dickinson, cat no. 354413) at 1 million cells/well in 2 mL culture medium and incubated for 18 h at 37° C. and 5% CO2 to 50-70% confluence. A cDNA mix was made in a 50 mL tube by adding 1.5 μg target cDNA, 1.5 μg pJT1R4 Int vector, 3 μL Plus Reagent, and 300 μL Opti-MEM I sequentially into the tube. A reagent mix was made in a separate 50 mL tube by adding 7.5 μL Lipofectamine LTX into 300 μL Opti-MEM I. The mixtures were incubated for 5 min at room temperature. The cDNA mix was then transferred into the reagent mix, mixed well, and incubated for additional 30 min at room temperature. A 500 μL of cDNA/Lipofectamine complex was then transferred to the wells of the cell plate in which the culture medium was changed to 2 mL of transfection medium containing DMEM with 4.5 g/L D-glucose supplemented with 10% FBS-HI and 20 mM HEPES. Transfected cells were cultured for 48 h in an incubator at 37° C. and 5% CO2. A subclone or pool from each overexpressing cell line was maintained in culture medium with the addition of 2 mg/mL G418 sulfate for the clone selection based on its built-in resistance to G418 sulfate for at least 3 weeks with medium changed every 2-3 days.
NPRs were overexpressed in T-Rex™ HEK293 cells following the induction with 300 ng/mL tetracycline in culture medium for 48 h. Induced cell lines in an exponential growth phase were treated with 0.05% trypsin-EDTA for a few seconds at room temperature, harvested in cell medium containing FBS to neutralize the trypsin, counted, and cryopreserved at the density of 2 million cells/mL in cell preservation solution containing FBS-HI with 5% DMSO. Cryopreserved cells were stored at −80° C. for a few days prior to transferring to a liquid nitrogen tank. Induced cell lines were then used for suspension assays to measure the activity of polypeptides to stimulate cGMP production in cGMP assays or for the preparation of cell membranes to measure the binding activity of polypeptides in competitive radioligand binding assays, as described below.
Test polypeptides were added starting at 10 μM concentration and at 10-fold decreasing concentrations to obtain 8-point concentration-response curves (i.e., 10 μM to 1 pM). The quantity of cGMP generated was detected using HTRF® technology and normalized to maximum amount produced by 100 nM amidated rat ANP and the minimum amount produced by assay buffer. Detailed steps are outlined below.
Stock solutions of test polypeptides (2 mM) dissolved in DMSO were first diluted 100-fold in assay buffer containing HBSS with Ca^2+ and Mg^2+, 5 mM HEPES, 0.5 mM IBMX, and 0.1% BSA or 0.1% casein (pH 7.4). The polypeptides were further serially diluted in 1:10 dilution steps in assay buffer containing 0.1% BSA or 0.1% casein to generate 8-point 2× working stock solutions ranging from 20 μM to […].
A 10 μL cell suspension containing 4000 cells was plated in Costar® half-area white opaque 96-well plates (Corning, cat no. 3693). Then 10 μL of assay buffer (basal activity), 200 nM of amidated rat ANP (maximum activity) or 2× working stock solutions of test polypeptides were transferred into the plate. Final concentration of DMSO in each well was 0.5%. The plate was shaken for 15 sec and then incubated for 40 min at room temperature.
The cGMP generated was measured using cGMP kit following the manufacturer's directions, as described below.

[1] = cGMP Assay (EC50, pM) w/Casein rNPRA, assay buffer with 0.1% casein
[2] = cGMP Assay (EC50, pM) w/BSA rNPRA, assay buffer with 0.1% BSA

{C20 diacid-γGlu}-EKEKEKGEKPRSSCFGKRIDRIGHQSGLGCPSFRHGSGSPSSGAPPPSG-NH2 (linker 14-30 via CH2) [Example 131]
EC50 [1]: 2160 pM

CC[C@H](C)[C@@H]1NC(=O)[C@H](CCCNC(=N)N)NC(=O)[C@H](CC(=O)O)NC(=O)[C@H]([C@@H](C)CC)NC(=O)[C@H](CCCNC(=N)N)NC(=O)[C@H](CCCCN)NC(=O)CNC(=O)[C@H](Cc2ccccc2)NC(=O)[C@@H](NC(=O)[C@H](CO)NC(=O)[C@H](CO)NC(=O)[C@H](CCCNC(=N)N)NC(=O)[C@@H]2CCCN2C(=O)[C@H](CCCCN)NC(=O)[C@H](CCC(=O)O)NC(=O)COCCOCCNC(=O)COCCOCCNC(=O)COCCOCCNC(=O)COCCOCCNC(=O)COCCOCCNC(=O)COCCOCCNC(=O)CNC(=O)[C@H](CCCCN)NC(=O)[C@H](CCC(=O)O)NC(=O)[C@H](CCCCN)NC(=O)[C@H](CCC(=O)O)NC(=O)[C@H](CCCCN)NC(=O)[C@H](CCC(=O)O)NC(=O)CC[C@H](NC(=O)CCCCCCCCCCCCCCCCCCC(=O)O)C(=O)O)CSCSC[C@@H](C(=O)N2CCC[C@H]2C(=O)N[C@@H](CO)C(=O)N[C@@H](Cc2ccccc2)C(=O)N[C@@H](CCCNC(=N)N)C(=O)N[C@@H](Cc2c[nH]cn2)C(=O)NCC(=O)N[C@@H](CO)C(=O)N2CCC[C@H]2C(=O)N[C@@H](CO)C(=O)N[C@@H](CO)C(=O)NCC(=O)N[C@@H](C)C(=O)N2CCC[C@H]2C(=O)N2CCC[C@H]2C(=O)N2CCC[C@H]2C(=O)N[C@@H](CO)C(N)=O)NC(=O)CNC(=O)[C@H](CC(C)C)NC(=O)CNC(=O)[C@H](CO)NC(=O)[C@H](Cc2ccc(O)cc2)NC(=O)[C@H](Cc2c[nH]cn2)NC(=O)CNC1=O [Example 122, HOOC-(CH2)18-CO-(γGlu)-EKEKEKG-(AEEA)6-EKPRSS[CFGKRIDRIGHYSGLGCJPSFRHGSPSSGAPPPS-NH2]
EC50 [1]: 3770 pM

CC[C@H](C)[C@@H]1NC(=O)[C@H](CCCNC(=N)N)NC(=O)[C@H](CC(=O)O)NC(=O)[C@H]([C@@H](C)CC)NC(=O)[C@H](CCCNC(=N)N)NC(=O)[C@H](CCCCN)NC(=O)CNC(=O)[C@H](Cc2ccccc2)NC(=O)[C@@H](NC(=O)[C@H](CO)NC(=O)[C@H](CO)NC(=O)[C@H](CCCNC(=N)N)NC(=O)[C@H](CCCNC(=N)N)NC(=O)[C@H](Cc2ccncc2)NC(=O)[C@H](CO)NC(=O)COCCOCCNC(=O)COCCOCCNC(=O)COCCOCCNC(=O)COCCOCCNC(=O)COCCOCCNC(=O)COCCOCCNC(=O)COCCOCCNC(=O)COCCOCCNC(=O)CNC(=O)[C@H](CCCCN)NC(=O)[C@H](CCC(=O)O)NC(=O)[C@H](CCCCN)NC(=O)[C@H](CCC(=O)O)NC(=O)[C@H](CCCCN)NC(=O)[C@H](CCC(=O)O)NC(=O)CC[C@H](NC(=O)CCCCCCCCCCCCCCCCCCC(=O)O)C(=O)O)CSCSC[C@@H](C(=O)N2CCC[C@H]2C(=O)N[C@@H](CO)C(=O)N[C@@H](Cc2ccccc2)C(=O)N[C@@H](CCCNC(=N)N)C(=O)N[C@@H](Cc2c[nH]cn2)C(=O)NCC(=O)N[C@@H](CO)C(=O)N2CCC[C@H]2C(=O)N[C@@H](CO)C(=O)N[C@@H](CO)C(=O)NCC(=O)N[C@@H](C)C(=O)N2CCC[C@H]2C(=O)N2CCC[C@H]2C(=O)N2CCC[C@H]2C(=O)N[C@@H](CO)C(N)=O)NC(=O)CNC(=O)[C@H](CC(C)C)NC(=O)CNC(=O)[C@H](CO)NC(=O)[C@H](Cc2ccc(O)cc2)NC(=O)[C@H](Cc2c[nH]cn2)NC(=O)CNC1=O [Example 107]
EC50 [2]: 149000 pM | EC50 [1]: 3770 pM

CC[C@H](C)[C@@H]1NC(=O)[C@H](CCCNC(=N)N)NC(=O)[C@H](CC(=O)O)NC(=O)[C@H]([C@@H](C)CC)NC(=O)[C@H](CCCNC(=N)N)NC(=O)[C@H](CCCCN)NC(=O)CNC(=O)[C@H](Cc2ccccc2)NC(=O)[C@@H](NC(=O)[C@H](CO)NC(=O)[C@H](CO)NC(=O)[C@H](CCCNC(=N)N)NC(=O)[C@H](CCCNC(=N)N)NC(=O)[C@H](Cc2ccncc2)NC(=O)[C@H](CO)NC(=O)COCCOCCNC(=O)COCCOCCNC(=O)COCCOCCNC(=O)COCCOCCNC(=O)COCCOCCNC(=O)COCCOCCNC(=O)CNC(=O)[C@H](CCCCN)NC(=O)[C@H](CCC(=O)O)NC(=O)[C@H](CCCCN)NC(=O)[C@H](CCC(=O)O)NC(=O)[C@H](CCCCN)NC(=O)[C@H](CCC(=O)O)NC(=O)CC[C@H](NC(=O)CCCCCCCCCCCCCCCCCCC(=O)O)C(=O)O)CSCSC[C@@H](C(=O)N2CCC[C@H]2C(=O)N[C@@H](CO)C(=O)N[C@@H](Cc2ccccc2)C(=O)N[C@@H](CCCNC(=N)N)C(=O)N[C@@H](Cc2c[nH]cn2)C(=O)NCC(=O)N[C@@H](CO)C(=O)NCC(=O)N[C@@H](CO)C(=O)N2CCC[C@H]2C(=O)N[C@@H](CO)C(=O)N[C@@H](CO)C(=O)NCC(=O)N[C@@H](C)C(=O)N2CCC[C@H]2C(=O)N2CCC[C@H]2C(=O)N2CCC[C@H]2C(=O)N[C@@H](CO)C(=O)NCC(N)=O)NC(=O)CNC(=O)[C@H](CC(C)C)NC(=O)CNC(=O)[C@H](CO)NC(=O)[C@H](Cc2ccc(O)cc2)NC(=O)[C@H](Cc2c[nH]cn2)NC(=O)CNC1=O [Example 117]
EC50 [2]: 200000 pM

{C20 diacid-γGlu}-EKEKEKG[AEEA][AEEA][AEEA][AEEA]S[4Pal]RRSSCFGGRIDRIGHQSGLGCPSFRHGGKSSGAPPPS-NH2 (linker 18-34 via CH2) [Example 83]
EC50 (assay buffer with 0.1% casein, read-out: cGMP Assay (EC50, pM) w/Casein rNPRA): 16700 pM
